Test results from patent publication US20230233690A1, “ANDROGEN RECEPTOR PROTEIN DEGRADERS” (THE REGENTS OF THE UNIVERSITY OF MICHIGAN, priority 2020, published 2023).
Like-named read-outs stand apart in the source and are kept apart here.

Assays:
[1] = PK parameters in male ICR mice; assay type: in vivo
Procedure: (§1) The pharmacokinetics (PK) of representative Compounds of the Disclosure were evaluated in mice or rats to provide an assessment of their oral bioavaibility. All animal experiments were performed under the guidelines of the University of Michigan Committee for Use and Care of Animals and using an approved animal protocol.

AR protein = target: T1, AR protein (Homo sapiens, UniProt P10275); assay: Western blotting of AR protein degradation in VCaP cells; assay type: cell-based
T1 construct: endogenous in cells; host or cells: VCaP
T1 sequence (P10275 1-920): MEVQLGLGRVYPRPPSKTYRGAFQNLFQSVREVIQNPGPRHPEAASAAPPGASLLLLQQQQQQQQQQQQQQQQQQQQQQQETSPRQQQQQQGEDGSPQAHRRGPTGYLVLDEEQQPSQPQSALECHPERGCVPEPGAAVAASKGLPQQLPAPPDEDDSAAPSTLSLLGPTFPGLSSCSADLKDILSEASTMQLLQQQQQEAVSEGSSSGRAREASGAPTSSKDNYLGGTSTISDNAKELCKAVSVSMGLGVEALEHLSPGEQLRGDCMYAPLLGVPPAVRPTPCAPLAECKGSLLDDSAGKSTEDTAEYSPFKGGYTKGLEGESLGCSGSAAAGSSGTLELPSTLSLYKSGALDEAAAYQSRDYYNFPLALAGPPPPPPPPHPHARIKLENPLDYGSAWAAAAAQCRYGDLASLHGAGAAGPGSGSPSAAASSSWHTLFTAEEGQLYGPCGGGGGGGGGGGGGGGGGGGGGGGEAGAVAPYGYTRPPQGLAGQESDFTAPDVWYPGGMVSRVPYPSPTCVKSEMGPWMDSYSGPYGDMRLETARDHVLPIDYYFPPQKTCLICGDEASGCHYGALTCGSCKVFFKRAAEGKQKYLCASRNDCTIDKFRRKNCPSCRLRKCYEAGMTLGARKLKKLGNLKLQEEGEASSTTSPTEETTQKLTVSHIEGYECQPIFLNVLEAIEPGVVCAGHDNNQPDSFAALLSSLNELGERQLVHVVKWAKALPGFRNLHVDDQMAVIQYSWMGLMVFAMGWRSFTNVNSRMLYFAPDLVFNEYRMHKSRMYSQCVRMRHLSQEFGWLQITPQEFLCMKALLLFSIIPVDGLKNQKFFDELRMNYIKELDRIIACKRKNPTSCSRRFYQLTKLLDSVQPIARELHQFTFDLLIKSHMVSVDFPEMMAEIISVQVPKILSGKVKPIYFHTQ
Procedure: The treated cells were lysed with RIPA buffer. […] GAPDH was used as a loading control.
Bands were quantified with ImageJ software. The relative numbers of each band obtained from normalization with its corresponding GAPDH level were compared with Prism 8 software. The DC50 values were produced from Prism 8, and the DC90 values were calculated with an equation=Bottom+(Top−Bottom)/(1+10^((Log EC50−X)*HillSlope) based on DC50 and Hillslope values.

[2] = PK parameters in male mice (Table 9); assay type: in vivo; conditions: for Vd: read-out: Vss; for F: PO 3 mg/kg vs IV 1 mg/kg
Procedure: as §1

[3] = ICR, mouse, in vivo, IV 1 mg/kg
[4] = ICR, mouse, in vivo, IV 1 mg/kg, read-out: AUC(0-t)
[5] = ICR, mouse, in vivo, PO 3 mg/kg
[6] = ICR, mouse, in vivo, PO 3 mg/kg, read-out: AUC(0-t)
[7] = ICR, mouse, in vivo, PO 3 mg/kg, read-out: Cmax
[8] = ICR, mouse, in vivo, PO 3 mg/kg, read-out: Tmax

SMILES	% AR protein degradation in VCaP Cells (AR protein; 0.001 μM) [%]	% AR protein degradation in VCaP Cells (AR protein; 0.01 μM) [%]	% AR protein degradation in VCaP Cells (AR protein; 0.1 μM) [%]	% AR protein degradation in VCaP Cells (AR protein; 1 μM) [%]	clearance [2, 3] [mL/min/kg]	Vd [2, 3] [L/kg]	AUC(0-t) ([2]; IV 1 mg/kg) [ng·h/mL]	T1/2 ([2]; IV 1 mg/kg) [h]	AUC(0-t) ([2]; PO 3 mg/kg) [ng·h/mL]	Cmax ([2]; PO 3 mg/kg) [ng/mL]	T1/2 ([2]; PO 3 mg/kg) [h]	Tmax ([2]; PO 3 mg/kg) [h]	F [2] [%]	also measured
CC1(C)[C@H](NC(=O)c2ccc(N3CCN(CC4CCN(c5ccc6c(c5)C(=O)N(C5CCC(=O)NC5=O)C6=O)CC4)CC3)cc2)C(C)(C)[C@H]1Oc1ccc(C#N)c(Cl)c1 (stereo partly drawn) [Cpd. No. 46, N-((1r,3r)-3-(3-chloro-4-cyanophenoxy)-2,2,4,4-tetramethylcyclobutyl)-4-(4-((1-(2-(2,6-dioxopiperidin-3-yl)-1,3-dioxoisoindolin-5-yl)piperidin-4-yl)methyl)piperazin-1-yl)benzamide]	–	–	–	–	–	–	–	–	–	–	–	–	–	AUC(0-t) ([1]; IV 2 mg/kg): 13298.5 ng·h/mL; Cl-obs ([1]; IV 2 mg/kg): 1.2 mL/min/kg; Vss ([1]; IV 2 mg/kg): 2.7 L/kg; AUC(0-t) ([1]; PO 5 mg/kg): 22360.5 ng·h/mL; Cmax ([1]; PO 5 mg/kg): 1304.3 ng/mL; F ([1]; PO 5 mg/kg): 67.3%; T1/2 ([1]; PO 5 mg/kg): 18.8 h
CC1(C)[C@H](NC(=O)c2ccc(N3CCC(N4CCN(c5ccc6c(c5)C(=O)N(C5CCC(=O)NC5=O)C6=O)CC4)CC3)cc2)C(C)(C)[C@H]1Oc1ccc(C#N)c(Cl)c1 (stereo partly drawn) [compound 189, N-((1r,3r)-3-(3-chloro-4-cyanophenoxy)-2,2,4,4-tetramethylcyclobutyl)-4-(4-(4-(2-(2,6-dioxopiperidin-3-yl)-1,3-dioxoisoindolin-5-yl)piperazin-1-yl)piperidin-1-yl)benzamide]	–	–	–	–	–	–	–	–	–	–	–	–	–	AUC(0-t) ([1]; IV 1 mg/kg): 4333.7 ng·h/mL; Cl-obs ([1]; IV 1 mg/kg): 2.2 mL/min/kg; Vss ([1]; IV 1 mg/kg): 3.8 L/kg; AUC(0-t) ([1]; PO 3 mg/kg): 3127 ng·h/mL; Cmax ([1]; PO 3 mg/kg): 207 ng/mL; F ([1]; PO 3 mg/kg): 24%; T1/2 ([1]; PO 3 mg/kg): 12.4 h
CC1(C)[C@H](NC(=O)c2ccc(N3CCN(CC4CN(c5ccc6c(c5)C(=O)N(C5CCC(=O)NC5=O)C6=O)C4)CC3)cc2)C(C)(C)[C@H]1Oc1ccc(C#N)c(Cl)c1 (stereo partly drawn) [Cpd. No. 112, N-((1r,3r)-3-(3-chloro-4-cyanophenoxy)-2,2,4,4-tetramethylcyclobutyl)-4-(4-((1-(2-(2,6-dioxopiperidin-3-yl)-1,3-dioxoisoindolin-5-yl)azetidin-3-yl)methyl)piperazin-1-yl)benzamide]	–	–	–	–	–	–	–	–	–	–	–	–	–	AUC(0-t) ([1]; IV 2 mg/kg): 11034.8 ng·h/mL; Cl-obs ([1]; IV 2 mg/kg): 1.9 mL/min/kg; Vss ([1]; IV 2 mg/kg): 2.7 L/kg; AUC(0-t) ([1]; PO 5 mg/kg): 20599.8 ng·h/mL; Cmax ([1]; PO 5 mg/kg): 1389.4 ng/mL; F ([1]; PO 5 mg/kg): 74.7%; T1/2 ([1]; PO 5 mg/kg): 12.0 h
N#Cc1ccc(O[C@H]2CC[C@H](NC(=O)c3ccc(N4CCC(N5CCN(c6ccc7c(c6)C(=O)N(C6CCC(=O)NC6=O)C7=O)CC5)CC4)cc3)CC2)cc1Cl (stereo partly drawn) [compound 223, N-((1r,4r)-4-(3-chloro-4-cyanophenoxy)cyclohexyl)-4-(4-(4-(2-(2,6-dioxopiperidin-3-yl)-1,3-dioxoisoindolin-5-yl)piperazin-1-yl)piperidin-1-yl)benzamide]	73	91	85	75	6.5	3.04	2425	6.1	2154	207	5.6	4.0	30	–
CN(c1ccc(C#N)c(Cl)c1)[C@H]1CC[C@H](NC(=O)c2ccc(N3CC(CN4CCN(c5ccc6c(c5)C(=O)N(C5CCC(=O)NC5=O)C6=O)CC4)C3)cc2)CC1 (stereo partly drawn) [compound 239, N-((1r,4r)-4-((3-chloro-4-cyanophenyl)(methyl)amino)cyclohexyl)-4-(3-((4-(2-(2,6-dioxopiperidin-3-yl)-1,3-dioxoisoindolin-5-yl)piperazin-1-yl)methyl)azetidin-1-yl)benzamide]	73	91	95	94	–	–	1118	8.8	1134	92.2	8.1	4.0	34	Cl ([2]; IV 1 mg/kg): 13.2 mL/min/kg; Vss ([2]; IV 1 mg/kg): 8.25 L/kg
CC1(C)[C@H](NC(=O)c2ccc(N3CCC(CN4CCN(c5ccc6c(c5)C(=O)N(C5CCC(=O)NC5=O)C6=O)CC4)CC3)cc2)C(C)(C)[C@H]1Oc1ccc(C#N)c(Cl)c1 (stereo partly drawn) [compound 190, N-((1r,3r)-3-(3-chloro-4-cyanophenoxy)-2,2,4,4-tetramethylcyclobutyl)-4-(4-((4-(2-(2,6-dioxopiperidin-3-yl)-1,3-dioxoisoindolin-5-yl)piperazin-1-yl)methyl)piperidin-1-yl)benzamide]	–	–	–	–	–	–	–	–	–	–	–	–	–	AUC(0-t) ([1]; IV 1 mg/kg): 2565 ng·h/mL; Cl-obs ([1]; IV 1 mg/kg): 3.2 mL/min/kg; Vss ([1]; IV 1 mg/kg): 6.8 L/kg; AUC(0-t) ([1]; PO 3 mg/kg): 2550.1 ng·h/mL; Cmax ([1]; PO 3 mg/kg): 134.4 ng/mL; F ([1]; PO 3 mg/kg): 33.1%; T1/2 ([1]; PO 3 mg/kg): 67.8 h
N#Cc1ccc(O[C@H]2CC[C@H](NC(=O)c3ccc(N4CCN(C5CCN(c6ccc7c(c6)C(=O)N(C6CCC(=O)NC6=O)C7=O)CC5)CC4)cc3)CC2)cc1Cl (stereo partly drawn) [compound 222, N-((1r,4r)-4-(3-chloro-4-cyanophenoxy)cyclohexyl)-4-(4-(1-(2-(2,6-dioxopiperidin-3-yl)-1,3-dioxoisoindolin-5-yl)piperidin-4-yl)piperazin-1-yl)benzamide]	63	59	60	43	7.33	4.75	–	–	–	–	–	–	33	half-life [2, 3]: 9 h; AUC(0-t) [2, 4]: 1980 ng·h/mL; half-life [2, 5]: 11.3 h; AUC(0-t) [2, 6]: 1990 ng·h/mL; Cmax [2, 7]: 122 ng/mL; Tmax [2, 8]: 6 h
CN(c1ccc(C#N)c(Cl)c1)[C@H]1CC[C@H](NC(=O)c2ccc(N3CCN(CC4CCN(c5ccc6c(c5)C(=O)N(C5CCC(=O)NC5=O)C6=O)CC4)CC3)cc2)CC1 (stereo partly drawn) [compound 233, N-((1r,4r)-4-((3-chloro-4-cyanophenyl)(methyl)amino)cyclohexyl)-4-(4-((1-(2-(2,6-dioxopiperidin-3-yl)-1,3-dioxoisoindolin-5-yl)piperidin-4-yl)methyl)piperazin-1-yl)benzamide]	49	78	87	76	8.5	16.8	–	–	–	–	–	–	30	half-life [2, 3]: 26 h; AUC(0-t) [2, 4]: 1040 ng·h/mL; half-life [2, 5]: 41 h; AUC(0-t) [2, 6]: 940 ng·h/mL; Cmax [2, 7]: 60 ng/mL; Tmax [2, 8]: 4 h
CN(c1ccc(C#N)c(Cl)c1)[C@H]1CC[C@H](NC(=O)c2ccc(N3CC(N4CCN(c5ccc6c(c5)C(=O)N(C5CCC(=O)NC5=O)C6=O)CC4)C3)cc2)CC1 (stereo partly drawn) [compound 240, N-((1r,4r)-4-((3-chloro-4-cyanophenyl)(methyl)amino)cyclohexyl)-4-(3-(4-(2-(2,6-dioxopiperidin-3-yl)-1,3-dioxoisoindolin-5-yl)piperazin-1-yl)azetidin-1-yl)benzamide]	82	87	88	75	3.5	–	4234	7.5	8637	484	26.8	4.7	67	Vss ([2]; IV 1 mg/kg): 2.1 L/kg
